From ChEMBL document CHEMBL6087460, “Generating a Peptide Library Using the Repeats of Amino Acid Scaffolds Created by Sliding the Framework of a 7-mer Human Chemerin Segment and Discovery of Potent Antibacterial and Antimycobacterial Peptides” (J Med Chem, 2025)
Values after ≈ are worked out from the molar mass of the structure shown. Active and inactive are the calls of the source. No cut-off for these calls is given here. Where a SMILES comes first, the peptide text is derived from it.

Key:
[1] = Retention time of compound by RP-HPLC method; assay type: physicochemical
[2] = Hemolytic activity in human RBC at 100 uM measured after 40 mins by absorbance based assay relative to control; assay type: toxicity, cell-based, Erythrocyte; details: for hemolysis at 40 min, 100 µM: human red blood cells, read-out: Activity
[3] = test system: Escherichia coli; assay: Antibacterial activity against Escherichia coli ATCC 25922 incubated for 16 to 18 hrs by broth dilution assay; assay type: functional; details: time 16-18 hrs
[4] = test system: Klebsiella pneumoniae; assay: Antibacterial activity against Klebsiella pneumoniae ATCC 27736 incubated for 16 to 18 hrs by broth dilution assay; assay type: functional; details: time 16-18 hrs
[5] = test system: Pseudomonas aeruginosa; assay: Antibacterial activity against Pseudomonas aeruginosa ATCC BAA-427 incubated for 16 to 18 hrs by broth dilution assay; assay type: functional; details: time 16-18 hrs
[6] = test system: Staphylococcus aureus; assay: Antibacterial activity against Staphylococcus aureus ATCC 25923 incubated for 16 to 18 hrs by broth dilution assay; assay type: functional; details: time 16-18 hrs
[7] = test system: Bacillus subtilis; assay: Antibacterial activity against Bacillus subtilis 6633 incubated for 16 to 18 hrs by broth dilution assay; assay type: functional; details: time 16-18 hrs
[8] = test system: Staphylococcus aureus; assay: Antibacterial activity against methicillin-resistant Staphylococcus aureus 33591 incubated for 16 to 18 hrs by broth dilution assay; assay type: functional; details: time 16-18 hrs
[9] = test system: Staphylococcus aureus; assay: Antibacterial activity against methicillin-resistant Staphylococcus aureus BAA-44 incubated for 16 to 18 hrs by broth dilution assay; assay type: functional; details: time 16-18 hrs
[10] = Hemolytic activity in human RBC measured after 40 mins by absorbance based assay; assay type: toxicity, cell-based, Erythrocyte; details: human red blood cells
[11] = test system: Escherichia coli; assay: Bactericidal activity against Escherichia coli ATCC 25922 incubated for 16 to 18 hrs; assay type: functional; details: time 16-18 hrs
[12] = test system: Escherichia coli; assay: Antibacterial activity against Escherichia coli ATCC 25922 incubated for 16 to 18 hrs in presence of 10 percent human serum by broth dilution assay; assay type: functional; details: time 16-18 hrs
[13] = test system: Staphylococcus aureus; assay: Bactericidal activity against Staphylococcus aureus ATCC 25923 incubated for 16 to 18 hrs; assay type: functional; details: time 16-18 hrs
[14] = test system: Staphylococcus aureus; assay: Antibacterial activity against Staphylococcus aureus ATCC 25923 incubated for 16 to 18 hrs in presence of 10 percent human serum by broth dilution assay; assay type: functional; details: time 16-18 hrs
[15] = Cytotoxicity against mouse 3T3-L1 cells assessed as cell viability at 100 uM incubated for 24 hrs by MTT assay relative to control; assay type: toxicity, cell-based; details: 3T3-L1 cells, read-out: Activity
[16] = Cytotoxicity against rat L6 cells assessed as cell viability at 100 uM incubated for 24 hrs by MTT assay relative to control; assay type: toxicity, cell-based; details: L6 cells, read-out: Activity
[17] = test system: Escherichia coli; assay: Bactericidal activity against Escherichia coli ATCC 25922 at MIC incubated for 45 mins by time kill assay; assay type: functional, organism-based
[18] = test system: Staphylococcus aureus; assay: Bactericidal activity against Staphylococcus aureus ATCC 25923 at MIC incubated for 45 mins by time kill assay; assay type: functional, organism-based
[19] = test system: Escherichia coli; assay: Induction of membrane depolarization in Escherichia coli ATCC 25922 by diSC3-5 dye based analysis; assay type: functional, organism-based
[20] = test system: Staphylococcus aureus; assay: Induction of membrane depolarization in Staphylococcus aureus ATCC 25923 by diSC3-5 dye based analysis; assay type: functional, organism-based
[21] = test system: Escherichia coli; assay: Disruption of plasma membrane integrity in Escherichia coli ATCC 25922 by SYTOX-Green uptake assay; assay type: functional, organism-based
[22] = test system: Staphylococcus aureus; assay: Disruption of plasma membrane integrity in Staphylococcus aureus ATCC 25923 by SYTOX-Green uptake assay; assay type: functional, organism-based
[23] = test system: Escherichia coli; assay: Disruption of membrane integrity in Escherichia coli ATCC 25922 by PI staining based analysis; assay type: functional, organism-based
[24] = test system: Staphylococcus aureus; assay: Disruption of membrane integrity in Staphylococcus aureus ATCC 25923 by PI staining based analysis; assay type: functional, organism-based
[25] = Hemolytic activity in human RBC assessed as disruption of membrane integrity by Alexa Fluor-Annexin V staining based analysis; assay type: toxicity, cell-based; details: erythrocyte
[26] = test system: Mycolicibacterium smegmatis; assay: Antitubercular activity against Mycobacterium smegmatis incubated for 24 hrs by rezasurin dye based assay; assay type: functional
[27] = test system: Escherichia coli; assay: Bactericidal activity against Escherichia coli ATCC 25922 at MIC incubated for 60 mins by time kill assay; assay type: functional, organism-based
[28] = test system: Staphylococcus aureus; assay: Bactericidal activity against Staphylococcus aureus ATCC 25923 at MIC incubated for 60 mins by time kill assay; assay type: functional, organism-based
[29] = Drug localization in cell membrane of Escherichia coli ATCC 25922 at 3 times MIC by confocal microscopy; assay type: ADME, cell membranes
[30] = Stability in 10 percent human serum assessed as compound remaining measured after 60 mins by RP-HPLC analysis; assay type: ADME, cell-free; details: 10% human serum, read-out: Stability
[31] = test system: Escherichia coli; assay: Induction of cell membrane damage in Escherichia coli ATCC 25922 at 3 times MIC incubated for 60 mins by SEM analysis; assay type: functional, organism-based
[32] = test system: Staphylococcus aureus; assay: Induction of cell membrane damage in Staphylococcus aureus ATCC 25923 at 3 times MIC incubated for 60 mins by SEM analysis; assay type: functional, organism-based
[33] = test system: Escherichia coli; assay: Induction of resistance development in Escherichia coli ATCC 25922 assessed as fold increase in MIC at sub-MIC measured after 30 passages relative to control; assay type: functional
[34] = test system: Staphylococcus aureus; assay: Induction of resistance development in Staphylococcus aureus ATCC 25923 assessed as fold increase in MIC at sub-MIC measured after 30 passages relative to control; assay type: functional
[35] = test system: Staphylococcus aureus; assay: Induction of resistance development in methicillin-resistant Staphylococcus aureus 33591 assessed as fold increase in MIC at sub-MIC measured after 30 passages relative to control; assay type: functional
[36] = test system: Staphylococcus aureus; assay: Induction of resistance development in methicillin-resistant Staphylococcus aureus BAA-44 assessed as fold increase in MIC at sub-MIC measured after 30 passages relative to control; assay type: functional

Compound	Retention_time [1] [min]	hemolysis at 40 min, 100 µM [2] [%]	MIC [3] [µM]	MIC [4] [µM]	MIC [5] [µM]	MIC [6] [µM]	MIC [7] [µM]	MIC [8] [µM]	MIC [9] [µM]	HC50 at 40 min [10] [µM]	further results
H-RLRLRLRLRLRL-OH	15.99	17	1.9	30.6	15.3	3.8	3.8	15.3	15.3	279	–
H-KVLGKVLGKVLGKVLG-OH	20.12	–	3.9	7.8	15.6	7.8	15.6	7.8	3.9	2000	MBC [11]: 3.9 µM; MIC [12]: 3.9 µM; MBC [13]: 12.6 µM; MIC [14]: 12.6 µM; viability at 24 h, 100 µM [15]: 75%; viability at 24 h, 100 µM [16]: 75%; Activity [17]: Active; Activity [18]: Active; Activity [19]: Active; Activity [20]: Active; Activity [21]: Active; Activity [22]: Active; Activity [23]: Active; Activity [24]: Active; Activity [25]: Non-toxic; MIC [26]: > 10 µM
H-LGRLLGRLLGRL-OH	15.4	–	9.4	37.4	37.4	9.4	9.4	9.4	4.7	2000	Activity ([2]; erythrocyte, 40 min, 100 µM): Non-toxic; MBC [11]: 18.2 µM; MIC [12]: 18.2 µM; MBC [13]: 18.2 µM; MIC [14]: 18.2 µM; viability at 24 h, 100 µM [15]: > 80%; viability at 24 h, 100 µM [16]: > 80%; Activity [27]: Active; Exhibited Rapid Kinetics; Activity [28]: Active; Exhibited Rapid Kinetics; Activity [19]: Active; Activity [20]: Active; Activity [21]: Active; Activity [22]: Active; Activity [23]: Active; Activity [24]: Active; Activity [25]: Non-toxic; MIC [26]: 5 µM
H-RLRLRLRLRLRLRL-OH	16.72	20	3.3	26.2	13.1	3.3	3.3	13.1	13.1	249	–
CC(C)C[C@H](NC(=O)[C@H](CCCNC(=N)N)NC(=O)[C@@H](NC(=O)[C@H](CC(C)C)NC(=O)[C@H](CCCNC(=N)N)NC(=O)[C@@H](NC(=O)[C@H](CC(C)C)NC(=O)[C@H](CCCNC(=N)N)NC(=O)[C@@H](NC(=O)[C@H](CC(C)C)NC(=O)[C@H](CCCNC(=N)N)NC(=O)c1cc(C(=O)O)ccc1-c1c2ccc(=[N+](C)C)cc-2oc2cc(N(C)C)ccc12)C(C)C)C(C)C)C(C)C)C(=O)N[C@H](C(=O)O)C(C)C.[Cl-] (HELM PEPTIDE1{[CN(C)c1ccc2c(-c3ccc(C(=O)O)cc3C(=O)[*:2])c3ccc(=[N+](C)C)cc-3oc2c1].R.L.V.R.L.V.R.L.V.R.L.V}$$$$V2.0)	–	–	–	–	–	–	–	–	–	–	Drug uptake [29]: Active
H-KVLKVLKVLKVLKVL-OH	20.77	20	1.8	3.6	14.5	3.6	3.6	3.6	3.6	256	remaining at 1 h [30]: 65%
H-LGRLLGRLLGRLLGRL-OH	20.87	95	1.8	1.8	3.5	1.8	1.8	1.8	1.8	51	–
H-KVKVKVKVKV-OH	10.88	18	21.7	43.4	21.7	21.7	10.9	43.4	21.7	283	–
H-RLVRLVRLVRLV-OH	19.25	–	4.2	8.4	8.4	4.2	2.1	4.2	4.2	2000	MBC [11]: 8.4 µM; MIC [12]: 16.8 µM; MBC [13]: 8.4 µM; MIC [14]: 16.8 µM; viability at 24 h, 100 µM [15]: 75%; viability at 24 h, 100 µM [16]: 75%; Activity [17]: Active; Activity [18]: Active; Activity [19]: Active; Activity [20]: Active; Activity [21]: Active; Activity [22]: Active; Activity [23]: Active; Activity [24]: Active; Activity [25]: Non-toxic; Activity [31]: Active; Activity [32]: Active; MIC [26]: 5 µM
O=C(O)c1cn(C2CC2)c2cc(N3CCNCC3)c(F)cc2c1=O [CIPROFLOXACIN]	–	–	0.1 (≈ 0.0331 µg/mL)	0.1 (≈ 0.0331 µg/mL)	6.3 (≈ 2.09 µg/mL)	6.3 (≈ 2.09 µg/mL)	6.3 (≈ 2.09 µg/mL)	6.3 (≈ 2.09 µg/mL)	6.3 (≈ 2.09 µg/mL)	–	fold change (FC) [33]: 128; fold change (FC) [34]: 128; fold change (FC) [35]: 128; fold change (FC) [36]: 128
H-KVKVKVKVKVKVKV-OH	10.73	80	7.8	7.8	31.1	7.8	3.8	15.5	15.5	62	–
H-KVKVKVKVKVKV-OH	10.81	42	18.1	72.4	36.2	36.2	9.1	36.2	18.1	118	–
CO[C@H]1/C=C/O[C@@]2(C)Oc3c(C)c(O)c4c(O)c(c(/C=N/N5CCN(C)CC5)c(O)c4c3C2=O)NC(=O)/C(C)=C\C=C\[C@H](C)[C@H](O)[C@@H](C)[C@@H](O)[C@@H](C)[C@H](OC(C)=O)[C@@H]1C [RIFAMPIN]	–	–	–	–	–	–	–	–	–	–	MIC [26]: 0.25 µM (≈ 0.206 µg/mL)
CN(C)[C@@H]1C(O)=C(C(N)=O)C(=O)[C@@]2(O)C(O)=C3C(=O)c4c(O)cccc4[C@@](C)(O)[C@H]3C[C@@H]12 [TETRACYCLINE]	–	–	3.1 (≈ 1.38 µg/mL)	3.1 (≈ 1.38 µg/mL)	50 (≈ 22.2 µg/mL)	3.1 (≈ 1.38 µg/mL)	1.6 (≈ 0.711 µg/mL)	100 (≈ 44.4 µg/mL)	100 (≈ 44.4 µg/mL)	–	fold change (FC) [33]: 32; fold change (FC) [34]: 64; fold change (FC) [35]: <=64; fold change (FC) [36]: 128
